Assay results published in publication PMC7177833, “2-Aminopyridine Analogs Inhibit Both Enzymes of the Glyoxylate Shunt in Pseudomonas aeruginosa” (International Journal of Molecular Sciences, 2020).
≈ marks a conversion by molar mass, not a printed value. Like-named read-outs stand apart in the source and are kept apart here.

Key:
[1] = molecular target: T1, CYP1A2 (Homo sapiens, UniProt P05177); assay: CYP450 inhibition in HLM, phenacetin probe
T1 sequence (P05177 1-516): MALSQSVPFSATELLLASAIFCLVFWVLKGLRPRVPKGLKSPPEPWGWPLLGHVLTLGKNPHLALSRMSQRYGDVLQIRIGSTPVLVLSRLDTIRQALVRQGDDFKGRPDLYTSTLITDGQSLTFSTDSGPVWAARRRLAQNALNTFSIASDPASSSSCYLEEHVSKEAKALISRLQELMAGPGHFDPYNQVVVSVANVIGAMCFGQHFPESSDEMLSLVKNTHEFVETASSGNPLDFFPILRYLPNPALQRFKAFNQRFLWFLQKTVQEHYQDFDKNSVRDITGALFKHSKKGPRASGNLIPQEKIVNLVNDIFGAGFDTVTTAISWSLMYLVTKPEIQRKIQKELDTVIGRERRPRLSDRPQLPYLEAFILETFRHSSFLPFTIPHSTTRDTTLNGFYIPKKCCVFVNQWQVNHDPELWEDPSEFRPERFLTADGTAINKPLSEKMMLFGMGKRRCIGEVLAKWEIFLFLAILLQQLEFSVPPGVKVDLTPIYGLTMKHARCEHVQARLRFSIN
Method: The CYP450 inhibition was determined by measuring the reaction products of known CYP450 substrates (probes). Probe solutions were prepared by diluting stock solutions with buffer (100 mM Tris-HCl, pH 7.5, and 0.5 mM EDTA) to the final indicated concentrations (Figure 5), and adding 180 µL of pooled human liver microsomes (20 mg/mL) (BioIVT, West Sussex, UK). These probe solutions were dispensed (195 µL) into clear 96-well plates with low evaporation lids (Corning, Turin, Italy) and the plates were prewarmed to 37 °C in a thermomixer (Hamilton, Agrate Brianza, Italy). Next, 5 µL of the test compound or appropriate positive control (Table S4) were added to the wells and the plates were incubated for a further 5 min. Following this, the reactions were started by adding NADPH regenerating solution (50 µL, see previous Section 4.7) to each well. CYP450 mixtures containing phenacetin, rosiglitazone, mephenytoin, atorvastatin, and nifedipine probes were incubated for 10 min at 37 °C, whereas those with midazolam and diclofenac were incubated for 5 min at 37 °C. Aliquots (100 µL) from each reaction mixture were quenched in 200 µL acetonitrile, and the mixtures were sedimented at 3000 ×g for 10 min at 4 °C. The supernatants were diluted in water containing 5 ng/mL Rolipram as an internal standard for LC-MS/MS analysis. All incubations were carried out in triplicate.
Probe products were analyzed on an API4000 Qtrap mass spectrometer (Applied Biosystems/MDS SCIEX, Monza, Italy) coupled with an Acquity UPLC system (Waters, Milan, Italy) and a CTC-PAL auto-injector (CTC Analytics AG, Zwingen, Switzerland). […] The column temperature was maintained at 60 °C. The injected sample volume was 10 µL, and analytes were eluted at a flow rate of 800 µL/min in a gradient of eluent A (water with 0.1% formic acid) and eluent B (acetonitrile with 0.1% formic acid). […] The analytes were quantified in multiple reaction-monitoring mode. Data were processed, and the percentage control activity was calculated based on a comparison between the ratio of the sample peak area and the peak area.

[2] = Metabolic stability in human liver microsomes; format: in vitro ADME; settings: HLM; for Clh, int (predicted hepatic clearance): scaled; for Clh (predicted in vivo hepatic clearance): well-stirred model; for half-life at 0.5 µM / microsomal CLint at 0.5 µM: human, pooled human liver microsomes, pH 7.4
Method: The metabolic stability of the test compounds was measured following incubation with liver microsomes from humans (BioIVT, lot no. IHG; West Sussex, UK) and rats (BD Gentest, lot no. 60614; BD Biosciences, Milan, Italy). Verapamil and dextromethorphan were used as positive controls. An automated incubation procedure was performed using the RSP Freedom Evo liquid dispensing and incubation system (TECAN, Milan, Italy). Five microliters of 50 µM test compound or positive control were added to 445 µL of microsomal suspension in 96 deep-well plates. The microsomal preparation comprised 0.56 mg/mL of pooled and homogenized liver microsomes suspended in 50 mM potassium phosphate buffer, pH 7.4. After 5 min at 37 °C, the reactions were initiated by adding 50 µL of prewarmed NADPH regenerating buffer to each sample. The regenerating buffer comprised a 2% NaHCO3 solution containing 1.7 mg NADP, 7.8 mg glucose-6-phosphate, and 6 units of glucose-6-phosphate dehydrogenase per mL. The samples were incubated at 37 °C, and 50 µL aliquots were withdrawn after 0, 3, 10, 15, 30, and 45 min and quenched in 150 µL acetonitrile. […] The analytical column was a Synergi “Max-RP” reverse phase C12 with TMS endcapping (30 mm × 2 mm, 4 µm particle size) (Phenomenex, Inc., Bologna, Italy). The column temperature was maintained at 60 °C. […] Analytes were quantified in multiple reaction-monitoring mode. Peak areas were integrated using Integrator Software from Agilent (Agilent Technologies, Milan, Italy) and were divided by the peak areas of the internal standard. The percentage of parent compound remaining was calculated by normalizing the peak area ratio of the parent compound to that of the internal standard at time 0. The half-lives of compound metabolism were derived from the linear portion of the slope of ln percent parent compound vs time. Intrinsic clearance in liver microsomes was estimated from: (1) Clint=k×(V/M) (2) Clh, int=(Clint (×1st Scaling factor)×2^ndScaling factor) (3) Clh=(Q×Clh, int)/(Q+Clh, int).
Here, k is the rate of depletion of the parent compound ([…]), V is the volume of the reaction mixture in mL, and M is the concentration of microsomal protein (in mg/mL). The amounts of protein in the incubations were scaled relative to the average liver- and body-mass of each species to obtain intrinsic hepatic clearance (Clh, int, in […]) (Table S3). These scaling factors were used along with the average hepatic blood flow (Q, in […]) of each species to obtain in vivo correlations (Clh, in mL/min/kg) using the well-stirred model.

[3] = tested on: P. aeruginosa PAO1; assay: Antibacterial growth assay (OD600, 18 h) in LB or M9-acetate; format: cell-based; settings: Pseudomonas aeruginosa; for inhibition at 200 µM: final optical density; for MIC: PAO1, MIC = lowest concentration inhibiting >75% of growth
Method: Growth assays were carried out using clear, U-bottom, sterile 96-well plates (Thermo Fisher Scientific, Bishop’s Stortford, UK). P. aeruginosa PAO1 overnight cultures were diluted to a starting OD600 of 0.05 in LB medium or M9 medium supplemented with 0.5% acetate. The test compounds were added to the indicated final concentrations, and the plates were covered with gas-permeable adhesive seals (Scientific Laboratory Supplies, Nottingham, UK). Assay controls included 1% DMSO, a positive antibiotic control (ciprofloxacin, 1 µg/mL), and medium-only wells as a control for background absorbance. […]

[4] = PAO1, LB medium, read-out: PAO1 Growth Inhibition (%) at 200 µM LB
[5] = PAO1, M9-acetate medium, read-out: PAO1 Growth Inhibition (%) at 200 µM M9ac
[6] = M9 medium with 0.5% acetate, read-out: MIC M9ac

SMILES	IC50 [1] [µM]	T1/2 [2] [h]	Clh, int (predicted hepatic clearance) [2] [mL/min/kg]	Clh (predicted in vivo hepatic clearance) [2] [mL/min/kg]	half-life at 0.5 µM [2] [h]	microsomal CLint at 0.5 µM [2] [µL/min/mg]	inhibition at 200 µM [3, 4] [%]	inhibition at 200 µM [3, 5] [%]	MIC ([3]; LB medium, read-out: MIC LB) [µM]	MIC [3, 6] [µM]
CC(C)(C)OC(=O)/N=C(\NC(=O)OC(C)(C)C)Nc1cc(Cl)ccn1 [SB002]	> 100	1.342	23.31	10.96	1.35	17.3	0	100	> 200	1.6 (≈ 0.593 µg/mL)
Nc1cc(Cl)ccn1 [Compound 2-AP, 2-amino-4-chloropyridine, reference compound]	> 100	–	34.33	12.91	0.911	25.4	0	8	> 200	> 200
CC(C)(C)OC(=O)/N=C(\NC(=O)OC(C)(C)C)Nc1cc(C#N)ccn1 [SB023]	> 100	1.214	25.75	11.48	1.2	19.1	0	97	> 200	13.5 (≈ 4.88 µg/mL)
